Reference: US20250127801A1, “BRIDGED TRICYCLIC CARBAMOYLPYRIDONE COMPOUNDS AND USES THEREOF” (priority 2023, published 2025)
Values after ≈ are worked out from the molar mass of the structure shown. Read-outs that look alike come from different tables or passages of the source.

Tests used:
HIV-1 (IIIB) = assay: microbe, parasite or virus in culture; format: cell-based
in vitro = details: human; for CC50 at 5 days: uninfected MT-4 cells
physchem = details: 23 °C, thermodynamic from solid; for solubility thermodynamic: fassif; for solubility thermodynamic at 24 h: FaSSIF
[1] = Human immunodeficiency virus 1, IIIB, MT4, 120 h, read-out: MT4 EC50 (nM)
[2] = Human immunodeficiency virus 1, MT4, 120 h, HIV-1 (IIIB) replication in MT-4 cells, 5 days incubation, Cell Titer Glo, read-out: MT4 EC50

| EC50 (HIV-1 (IIIB); [2]) | solubility thermodynamic at 24 h (physchem) | Compound | EC50 (HIV-1 (IIIB); [1]) | CC50 (in vitro) | solubility thermodynamic (physchem) | CC50 at 5 days (in vitro) |
| --- | --- | --- | --- | --- | --- | --- |
|  |  | CC1=NO[C@@]2(CC[C@H](C)N3C[C@H]2n2cc(C(=O)NCc4ccc(F)cc4F)c(=O)c(OC(=O)OCCC(C)(C)c4c(CC(=O)O)cc(C)cc4OP(=O)(O)O)c2C3=O)C1 [Compound 25, 2-(2-(4-(((((3′S,5S,7′R)-10′-((2,4-difluorobenzyl)carbamoyl)-3,3′-dimethyl-1′,11′-dioxo-1′,4′,5′,11′-tetrahydro-3′H,4H,7′H-spiro[isoxazole-5,6′-[2,7]methanopyrido[1,2-a][1,4]diazonin]-12′-yl)oxy)carbonyl)oxy)-2-methylbutan-2-yl)-5-methyl-3-(phosphonooxy)phenyl)acetic acid] | 1.43 nM | 11600 nM | 4760 µg/mL (≈ 5.63 mM) |  |
|  |  | CC1=NO[C@@]2(CC[C@H](C)N3C[C@H]2n2cc(C(=O)NCc4ccc(F)cc4F)c(=O)c(OC(=O)CC(C)(C)c4c(C)cc(C)cc4OP(=O)(O)O)c2C3=O)C1 [Compound 26, (3′S,5S,7′R)-10′-((2,4-difluorobenzyl)carbamoyl)-3,3′-dimethyl-1′,11′-dioxo-1′,4′,5′,11′-tetrahydro-3′H,4H,7′H-spiro[isoxazole-5,6′-[2,7]methanopyrido[1,2-a][1,4]diazonin]-12′-yl 3-(2,4-dimethyl-6-(phosphonooxy)phenyl)-3-methylbutanoate] | 1.13 nM | 12200 nM | 4300 µg/mL (≈ 5.57 mM) |  |
|  |  | CC1=NO[C@@]2(CC[C@H](C)N3C[C@H]2n2cc(C(=O)NCc4ccc(F)cc4F)c(=O)c(OCOC(=O)CC(C)(C)c4c(C)cc(C)cc4OP(=O)(O)O)c2C3=O)C1 [Compound 27] | 2.75 nM | 16900 nM | 2260 µg/mL (≈ 2.82 mM) |  |
|  |  | CC1=NO[C@@]2(CC[C@H](C)N3C[C@H]2n2cc(C(=O)NCc4ccc(F)cc4F)c(=O)c(OC(=O)N(C)c4ncccc4CN(CC(=O)OCc4ccccc4)C(=O)OCOP(=O)(O)O)c2C3=O)C1 [Compound 33, benzyl N-((2-(((((3′S,5S,7′R)-10′-((2,4-difluorobenzyl)carbamoyl)-3,3′-dimethyl-1′,11′-dioxo-1′,4′,5′,11′-tetrahydro-3′H,4H,7′H-spiro[isoxazole-5,6′-[2,7]methanopyrido[1,2-a][1,4]diazonin]-12′-yl)oxy)carbonyl)(methyl)amino)pyridin-3-yl)methyl)-N-(((phosphonooxy)methoxy)carbonyl)glycinate] | 2.34 nM | 12900 nM | 4170 µg/mL (≈ 4.38 mM) |  |
|  |  | COC(=O)CN(Cc1cccnc1N(C)C(=O)Oc1c2n(cc(C(=O)NCc3ccc(F)cc3F)c1=O)[C@@H]1CN(C2=O)[C@@H](C)CC[C@]12CC(C)=NO2)C(=O)OCOP(=O)(O)O [Compound 34, methyl N-((2-(((((3′S,5S,7′R)-10′-((2,4-difluorobenzyl)carbamoyl)-3,3′-dimethyl-1′,11′-dioxo-1′,4′,5′,11′-tetrahydro-3′H,4H,7′H-spiro[isoxazole-5,6′-[2,7]methanopyrido[1,2-a][1,4]diazonin]-12′-yl)oxy)carbonyl)(methyl)amino)pyridin-3-yl)methyl)-N-(((phosphonooxy)methoxy)carbonyl)glycinate] | 1.4 nM | 12800 nM | 4920 µg/mL (≈ 5.62 mM) |  |
|  |  | CC1=NO[C@@]2(CC[C@H](C)N3C[C@H]2n2cc(C(=O)NCc4ccc(F)cc4F)c(=O)c(OC(=O)N(C)c4ncccc4CN(CCO)C(=O)OCOP(=O)(O)O)c2C3=O)C1 [Compound 35, (phosphonooxy)methyl ((2-(((((3′S,5S,7′R)-10′-((2,4-difluorobenzyl)carbamoyl)-3,3′-dimethyl-1′,11′-dioxo-1′,4′,5′,11′-tetrahydro-3′H,4H,7′H-spiro[isoxazole-5,6′-[2,7]methanopyrido[1,2-a][1,4]diazonin]-12′-yl)oxy)carbonyl)(methyl)amino)pyridin-3-yl)methyl)(2-hydroxyethyl)carbamate] | 2.04 nM | 11600 nM | 4460 µg/mL (≈ 5.26 mM) |  |
|  |  | CC1=NO[C@@]2(CC[C@H](C)N3C[C@H]2n2cc(C(=O)NCc4ccc(F)cc4F)c(=O)c(OCOC(=O)N(C)Cc4ccccc4OP(=O)(O)O)c2C3=O)C1 [Compound 37, (((3′S,5S,7′R)-10′-((2,4-difluorobenzyl)carbamoyl)-3,3′-dimethyl-1′,11′-dioxo-1′,4′,5′,11′-tetrahydro-3′H,4H,7′H-spiro[isoxazole-5,6′-[2,7]methanopyrido[1,2-a][1,4]diazonin]-12′-yl)oxy)methyl methyl(2-(phosphonooxy)benzyl)carbamate] | 13.3 nM | 33500 nM | 4500 µg/mL (≈ 5.92 mM) |  |
|  |  | CC1=NO[C@@]2(CC[C@H](C)N3C[C@H]2n2cc(C(=O)NCc4ccc(F)cc4F)c(=O)c(OCOC(=O)N(C)Cc4ccc(OP(=O)(O)O)cc4)c2C3=O)C1 [Compound 39, (((3′S,5S,7′R)-10′-((2,4-difluorobenzyl)carbamoyl)-3,3′-dimethyl-1′,11′-dioxo-1′,4′,5′,11′-tetrahydro-3′H,4H,7′H-spiro[isoxazole-5,6′-[2,7]methanopyrido[1,2-a][1,4]diazonin]-12′-yl)oxy)methyl methyl(4-(phosphonooxy)benzyl)carbamate] | 88.7 nM | ≥ 50000 nM | 4830 µg/mL (≈ 6.36 mM) |  |
|  |  | CC1=NO[C@@]2(CC[C@H](C)N3C[C@H]2n2cc(C(=O)NCc4ccc(F)cc4F)c(=O)c(OCc4ccc(OP(=O)(O)O)cc4)c2C3=O)C1 [Compound 41, 4-((((3′S,5S,7′R)-10′-((2,4-difluorobenzyl)carbamoyl)-3,3′-dimethyl-1′,11′-dioxo-1′,4′,5′,11′-tetrahydro-3′H,4H,7′H-spiro[isoxazole-5,6′-[2,7]methanopyrido[1,2-a][1,4]diazonin]-12′-yl)oxy)methyl)phenyl dihydrogen phosphate] | 0.727 nM | 12000 nM | 5080 µg/mL |  |
|  |  | CC1=NO[C@@]2(CC[C@H](C)N3C[C@H]2n2cc(C(=O)NCc4ccc(F)cc4F)c(=O)c(OCOC(=O)CC(C)(C)c4c(CC(=O)N[C@@H](CC(=O)O)C(=O)O)cc(C)cc4OP(=O)(O)O)c2C3=O)C1 [Compound 43, (2-(2-(4-((((3′S,5S,7′R)-10′-((2,4-difluorobenzyl)carbamoyl)-3,3′-dimethyl-1′,11′-dioxo-1′,4′,5′,11′-tetrahydro-3′H,4H,7′H-spiro[isoxazole-5,6′-[2,7]methanopyrido[1,2-a][1,4]diazonin]-12′-yl)oxy)methoxy)-2-methyl-4-oxobutan-2-yl)-5-methyl-3-(phosphonooxy)phenyl)acetyl)-L-aspartic acid] | 2.64 nM | 30700 nM | 5280 µg/mL (≈ 5.5 mM) |  |
| 1.8 nM | 4440 µg/mL (≈ 6.01 mM) | CC1=NO[C@@]2(CC[C@H](C)N3C[C@H]2n2cc(C(=O)NCc4ccc(F)cc4F)c(=O)c(OCOC(=O)O[C@H]4CCCC[C@@H]4OP(=O)(O)O)c2C3=O)C1 [Compound 44, (((3′S,5S,7′R)-10′-((2,4-difluorobenzyl)carbamoyl)-3,3′-dimethyl-1′,11′-dioxo-1′,4′,5′,11′-tetrahydro-3′H,4H,7′H-spiro[isoxazole-5,6′-[2,7]methanopyrido[1,2-a][1,4]diazonin]-12′-yl)oxy)methyl ((1S,2S)-2-(phosphonooxy)cyclohexyl) carbonate] |  |  |  | 13500 nM |
| 1.73 nM | 5320 µg/mL (≈ 7.21 mM) | CC1=NO[C@@]2(CC[C@H](C)N3C[C@H]2n2cc(C(=O)NCc4ccc(F)cc4F)c(=O)c(OCOC(=O)O[C@@H]4CCCC[C@H]4OP(=O)(O)O)c2C3=O)C1 [Compound 45, (((3′S,5S,7′R)-10′-((2,4-difluorobenzyl)carbamoyl)-3,3′-dimethyl-1′,11′-dioxo-1′,4′,5′,11′-tetrahydro-3′H,4H,7′H-spiro[isoxazole-5,6′-[2,7]methanopyrido[1,2-a][1,4]diazonin]-12′-yl)oxy)methyl ((1R,2R)-2-(phosphonooxy)cyclohexyl) carbonate] |  |  |  | 11400 nM |
| 2.51 nM | 4850 µg/mL (≈ 6.69 mM) | CC1=NO[C@@]2(CC[C@H](C)N3C[C@H]2n2cc(C(=O)NCc4ccc(F)cc4F)c(=O)c(OCOC(=O)O[C@H]4CCC[C@@H]4OP(=O)(O)O)c2C3=O)C1 [Compound 46, (((3′S,5S,7′R)-10′-((2,4-difluorobenzyl)carbamoyl)-3,3′-dimethyl-1′,11′-dioxo-1′,4′,5′,11′-tetrahydro-3′H,4H,7′H-spiro[isoxazole-5,6′-[2,7]methanopyrido[1,2-a][1,4]diazonin]-12′-yl)oxy)methyl ((1S,2S)-2-(phosphonooxy)cyclopentyl) carbonate] |  |  |  | 15100 nM |
| 2.22 nM | 4860 µg/mL (≈ 6.57 mM) | CC1=NO[C@@]2(CC[C@H](C)N3C[C@H]2n2cc(C(=O)NCc4ccc(F)cc4F)c(=O)c(OCOC(=O)OCC4(COP(=O)(O)O)CCC4)c2C3=O)C1 [Compound 47, (((3′S,5S,7′R)-10′-((2,4-difluorobenzyl)carbamoyl)-3,3′-dimethyl-1′,11′-dioxo-1′,4′,5′,11′-tetrahydro-3′H,4H,7′H-spiro[isoxazole-5,6′-[2,7]methanopyrido[1,2-a][1,4]diazonin]-12′-yl)oxy)methyl ((1-((phosphonooxy)methyl)cyclobutyl)methyl) carbonate] |  |  |  | 11200 nM |
| 3.82 nM | 4920 µg/mL (≈ 6.51 mM) | COC1=NO[C@@]2(CC[C@H](C)N3C[C@H]2n2cc(C(=O)NCc4ccc(F)cc4F)c(=O)c(OCOC(=O)OCC4(COP(=O)(O)O)CCC4)c2C3=O)C1 [Compound 48, (((3′S,5S,7′R)-10′-((2,4-difluorobenzyl)carbamoyl)-3-methoxy-3′-methyl-1′,11′-dioxo-1′,4′,5′,11′-tetrahydro-3′H,4H,7′H-spiro[isoxazole-5,6′-[2,7]methanopyrido[1,2-a][1,4]diazonin]-12′-yl)oxy)methyl ((1-((phosphonooxy)methyl)cyclobutyl)methyl) carbonate] |  |  |  | 15700 nM |
